# From patent publication US11197856B2, “Bicyclic compounds and methods for their use in treating autism” (priority 2013, dated 2021)
# Columns and labels:
# [1] = tested on: fmr1-knockout hippocampal neurons; assay: Dendritic spine density in hippocampal cell cultures; type: cell-based, mice
# Protocol: Hippocampal cell cultures were prepared from wild type and fmr1-knockout fetal mice (14-16 days of gestation). Briefly, mice were kill by cervical dislocation under chloroform anesthesia, and dissociated hippocampal cells were plated in 13 mm multiwell vessels (Falcon Primaria). A plating medium of MEM-Eagle's salts (supplied glutamine free) supplemented with 10% fetal bovine serum was used. Cultures were kept at 37° C. in a humidified 3% CO2 atmosphere. After 3d in vitro, green fluorescent protein (GFP) was added to monitor dendritic spine morphogenesis during time-course of culture (Ethell and Yamaguchi, 1999; Ethell et al., 2001, Henkemeyer et al., 2003). The dendritic spines usually formed between 7 and 14 days in vitro (DVI). By 14 DIV most dendritic protrusions were spines. The mean (±SD) spine density was measured as number of spines per micrometer and experiments were run in triplicate.
# Aged rats = assay: Novel Object Recognition Test (NORT) in aged rats; type: in vivo, male Wistar rats; conditions: 27 days after single 20 ng/animal i.c.v.
# Protocol: Aged rats (male Wistar rats, 18-20 months old) were divided into four groups: two vehicle-treated (groups 1 and 3) and two G-2-AllylP treated (groups 2 and 4) (all groups n=6-8). Cyclic G-2-AllylP was synthesised by the Department of Medicinal Chemistry and dissolved in normal saline before the treatment. On day 1 a single dose of cyclic G-2-AllylP was given centrally (20 ng/animal, i.c.v.) to the animals in groups 2 and 4; saline was administered to groups 1 and 3. The memory tests using Novel Object Recognition Test started either on day 3 (groups 1 and 2) or 24 (groups 3 and 4) after the treatment. On the completion of the NORT, the rats were killed with an overdose of sodium pentobarbital and were perfused transcardially with normal saline followed by 10% formalin. Tissues collected at day 7 in groups 1 and 2, and at day 28 from groups 3 and 4. The brains were kept in the same fixative for a minimum of 2 days before being processed using a standard paraffin embedding procedure. Briefly, small blocks (10×10×3 mm) of tissue were fixed for up to 24 hrs. The blocks were then infiltrated and embedded with paraffin and cut in ribbons and mounted on slides. Slides were then stored until immunostaining was commenced. Synaptogenesis in brain tissue was examined using immunohistochemical staining. […]
# synaptophysin (SYN) = assay: PBBI in rats: synaptophysin (SYN) immunohistochemistry in hippocampus; type: in vivo, Sprague-Dawley rats; conditions: 30 mg/kg oral once daily
# Protocol: The methods for producing PBBI in this Example is the same as described above for Example 26. Adult Sprague-Dawley rats were randomly assigned into three groups: sham (craniotomy only), PBBI+vehicle (i.e. H2O), and PBBI+cG-2-AllylP. cG-2-AllylP (or vehicle) was administered via oral gavage at 30 mg/kg at 30 min post-injury and continued once daily thereafter for 7, 14 or 28 days. At each treatment endpoint, rats were perfused and brains were processed for histological analysis (n=5-6/group/time-point). For detection of axonal sprouting, immunohistochemical detection of growth-associated protein-43 (GAP-43) was employed. Synaptogenesis was determined by immunohistochemistry for synaptophysin (SYN). For histological quantification, the integrated density in the hippocampal region was determined using NIH ImageJ software.
# layer 5 cortical neurons = assay: Intracellular whole-cell recordings of spontaneous EPSCs in acute brain slices; type: in vivo, mice; conditions: MeCP2-/y animals; 20 mg/kg daily; vs vehicle
# adult MeCP2+/- mice = assay: Ocular dominance (OD) plasticity, optical imaging of intrinsic signals; type: in vivo; conditions: 4 days monocular deprivation
# Protocol: Adult (>P60) wild type (SVEV or BL6) and MeCP2 (+/−) mutant females (BL6) are used for this experiment. The wild type control group is composed of both wild type littermates of MeCP2+/− females or wild type age matched SVEV females. For monocular deprivation, animals are anesthetized with Avertin (0.016 ml/g) and the eyelids of one eye is sutured for 4 days. Prior to imaging, the suture is removed and the deprived eye re-opened. Only animals in which the deprivation sutures are intact and the condition of the deprived eye appears healthy are used for the imaging session. For cG-2-AllylP signaling activation, a solution containing cG-2-AllylP is injected intra-peritoneally (IP) daily for the entire period of deprivation. For the imaging sessions mice are anesthetized with urethane (1.3 g/kg; 20% of the full dosage is administered IP each 20-minutes up to the final dosage, 0.02 ml of cloroprothixene 1% is also injected together with the first administration). The skull is exposed and a custom-made plate is glued on the head to minimize movement. The skull is thinned over VI with a dremel drill and covered with an agarose solution in saline (1.3%) and a glass coverslip. During the imaging session, the animal is constantly oxygenated, its temperature maintained with a heating blanket and the eyes periodically treated with silicone oil; physiological conditions are constantly monitored. […]
smiles,measurement,setting,value
"C=CC[C@]12CCCN1C(=O)CNC2=O [cG-2-AllylP, (8aS)-Allyl-hexahydropyrrolo[1,2-a]pyrazine-1,4-dione]",spine density (mean±SD),"[1]; 0.5 nM, n=3",0.36±0.02 number of spines per micromete
same,spine density (mean±SD),[1]; 5 nM,0.25±0.03 number of spines per micromete
same,spine density (mean±SD),[1]; 50 nM,0.27±0.10 number of spines per micromete
same,novelty recognition (NORT),Aged rats,trend to improve the novelty recognition
same,injury-induced reduction in SYN expression,synaptophysin (SYN); 7d or 14d post-PBBI,no effect on injury-induced reductions
same,PBBI-induced reduction in SYN expression,synaptophysin (SYN); 28 days post-injury,attenuated PBBI-induced reductions
same,EPSC amplitude,layer 5 cortical neurons,significantly larger in amplitude
same,OD plasticity,adult MeCP2+/- mice,reduces the OD plasticity
